Reference: BigSolDB 2.1

O=C1CCc2cc(OCCCCc3nnnn3C3CCCCC3)ccc2N1
solubility (mole fraction)
Conditions	in 1,4-dioxane	in 2-butanone	in acetone	in acetonitrile	in ethanol	in ethyl acetate	in isopropanol	in methanol	in n-butanol	in n-propanol
273.15 K	–	0.00289	0.00168	0.0003	0.000168	0.000115	8.4e-05	0.000258	0.000437	0.000206
278.15 K	–	0.00345	0.00206	0.000506	0.000282	0.000205	0.000155	0.00041	0.000656	0.000334
283.15 K	–	0.00399	0.00244	0.000705	0.000406	0.00031	0.000233	0.000573	0.000907	0.000487
288.15 K	0.00525	0.00464	0.00287	0.000935	0.00054	0.000428	0.000324	0.000754	0.00119	0.000634
293.15 K	0.0061	0.00529	0.00332	0.00119	0.00069	0.000556	0.000421	0.000955	0.0015	0.000813
298.15 K	0.00708	0.006	0.00381	0.00151	0.000847	0.000704	0.000543	0.00117	0.00184	0.00098
303.15 K	0.00819	0.00677	0.00433	0.00187	0.00102	0.000861	0.000683	0.00141	0.00222	0.00116
308.15 K	0.0095	0.00774	0.00487	0.00226	0.00122	0.00102	0.000833	0.00166	0.00263	0.00136
313.15 K	0.0112	0.00881	0.00557	0.00273	0.00144	0.00119	0.000981	0.00193	0.00307	0.0016
